Source: ChEMBL document CHEMBL1687756 (Antimicrob Agents Chemother, 2010)

Assays:
[1] = Drug level in Beagle dog lymph node axillar at 5 mg/kg administered intramuscularly after 3 months; format: ADME, organism-based, Canis lupus familiaris; set-up: dose 5 mg/kg, route intramuscular; conditions: axillary lymph node, im, read-out: Drug uptake
[2] = Plasma concentration in male Beagle dog at 400 mg/kg, sc after 1 month; format: ADME, organism-based, Canis lupus familiaris; set-up: dose 400 mg/kg, route subcutaneous
[3] = Drug level in Beagle dog skin at non-injected site at 5 mg/kg, sc after 6 months; format: ADME, organism-based, Canis lupus familiaris, Zone of skin; set-up: dose 5 mg/kg, route subcutaneous; conditions: read-out: Drug uptake
Canis familiaris [4] = experiment: Toxicity in Beagle dog assessed as white deposits at 20 mg/kg administered intramuscularly after 3 months; format: organism-based, Canis lupus familiaris; set-up: dose 20 mg/kg, route intramuscular; conditions: in vivo, im, 2191.5 h
[5] = Ratio of drug level in lymph node popliteal to plasma in Beagle dog at 5 mg/kg, sc after 6 months; format: ADME, organism-based, Canis lupus familiaris; set-up: dose 5 mg/kg, route subcutaneous
[6] = Drug level in Beagle dog liver at 5 mg/kg administered intramuscularly after 3 months; format: ADME, organism-based, Canis lupus familiaris; set-up: dose 5 mg/kg, route intramuscular; conditions: im, read-out: Drug uptake
[7] = Drug level in Beagle dog lymph node mandibular at 5 mg/kg, sc after 3 months; format: ADME, organism-based, Canis lupus familiaris; set-up: dose 5 mg/kg, route subcutaneous; conditions: read-out: Drug uptake
[8] = Tmax in female dog at 200 mg administered intramuscularly after 29 days; conditions: in vivo, im
[9] = Drug level in Beagle dog thymus at 5 mg/kg, sc after 3 months; format: ADME, organism-based, Canis lupus familiaris; set-up: dose 5 mg/kg, route subcutaneous; conditions: read-out: Drug uptake
[10] = Drug level in Beagle dog muscle at injected site at 5 mg/kg administered intramuscularly after 3 months; format: ADME, organism-based, Canis lupus familiaris, Muscle tissue; set-up: dose 5 mg/kg, route intramuscular; conditions: im, read-out: Drug uptake
[11] = Cmax in Beagle dog at 5 mg/kg, sc after 184 days; format: ADME, organism-based, Canis lupus familiaris; set-up: dose 5 mg/kg, route subcutaneous; conditions: in vivo
Canis familiaris [12] = experiment: Toxicity in Beagle dog assessed as inflammatory signs at 20 mg/kg, sc after 3 months; format: organism-based, Canis lupus familiaris; set-up: dose 20 mg/kg, route subcutaneous; conditions: in vivo, 2191.5 h
[13] = Ratio of drug level in liver to plasma in Beagle dog at 5 mg/kg, sc after 6 months; format: ADME, organism-based, Canis lupus familiaris; set-up: dose 5 mg/kg, route subcutaneous
[14] = Absolute bioavailability in Beagle […] at 5 mg/kg administered intramuscularly after 176 days; format: ADME, organism-based, Canis lupus familiaris; conditions: in vivo, im
[15] = Plasma concentration in male Beagle dog at 400 mg/kg administered intramuscularly after 1 month; format: ADME, organism-based, Canis lupus familiaris; set-up: dose 400 mg/kg, route intramuscular; conditions: im
[16] = Ratio of drug level in spleen to plasma in female Beagle dog at 400 mg/kg, sc after 1 month; format: ADME, organism-based, Canis lupus familiaris; set-up: dose 400 mg/kg, route subcutaneous
[17] = AUC (0 to last) in male dog at 200 mg, sc after 29 days; conditions: plasma
[18] = Ratio of drug level in spleen to plasma in male Beagle dog at 200 mg/kg, sc after 1 month; format: ADME, organism-based, Canis lupus familiaris; set-up: dose 200 mg/kg, route subcutaneous
[19] = AUC (0 to last) in male dog at 400 mg administered intramuscularly after 29 days; conditions: plasma, im
[20] = Ratio of drug level in spleen to plasma in male Beagle dog at 200 mg/kg administered intramuscularly after 3 months; format: ADME, organism-based, Canis lupus familiaris; set-up: dose 200 mg/kg, route intramuscular; conditions: im
[21] = Ratio of drug level in thymus to plasma in male Beagle dog at 200 mg/kg administered intramuscularly after 1 month; format: ADME, organism-based, Canis lupus familiaris; set-up: dose 200 mg/kg, route intramuscular; conditions: im
[22] = (§1) Plasma concentration in Beagle dog at 5 mg/kg administered intramuscularly after 3 months; format: ADME, organism-based, Canis lupus familiaris; set-up: dose 5 mg/kg, route intramuscular; conditions: im
Plasma [23] = experiment: as §1; format: ADME, organism-based, Canis lupus familiaris; set-up: dose 5 mg/kg, route intramuscular; conditions: in vivo, im, 2191.5 h, BLD = below limit of detection
[24] = Ratio of drug level in thymus to plasma in Beagle dog at 5 mg/kg, sc after 3 months; format: ADME, organism-based, Canis lupus familiaris; set-up: dose 5 mg/kg, route subcutaneous
[25] = AUC (0 to infinity) in Sprague-Dawley rat at 1.25 mg/kg, iv after 2 days; format: ADME, organism-based; set-up: time infinity, dose 1.25 mg/kg, route intravenous; conditions: plasma
[26] = Cmax in female dog at 200 mg, sc after 29 days; conditions: in vivo
[27] = Drug level in Beagle dog lymph node mandibular at 5 mg/kg, sc after 6 months; format: ADME, organism-based, Canis lupus familiaris; set-up: dose 5 mg/kg, route subcutaneous; conditions: read-out: Drug uptake
[28] = AUC (0 to last) in female dog at 400 mg administered intramuscularly after 85 days; conditions: plasma, im
Canis familiaris [29] = experiment: Tmax in Beagle dog at 5 mg/kg, sc after 184 days; format: ADME, organism-based, Canis lupus familiaris; set-up: dose 5 mg/kg, route subcutaneous; conditions: in vivo, 4416 h
[30] = Drug level in Beagle dog thymus at 5 mg/kg administered intramuscularly after 3 months; format: ADME, organism-based, Canis lupus familiaris; set-up: dose 5 mg/kg, route intramuscular; conditions: im, read-out: Drug uptake
[31] = Ratio of drug level in spleen to plasma in female Beagle dog at 200 mg/kg administered intramuscularly after 1 month; format: ADME, organism-based, Canis lupus familiaris; set-up: dose 200 mg/kg, route intramuscular; conditions: im
[32] = Ratio of drug level in spleen to plasma in female Beagle dog at 400 mg/kg administered intramuscularly after 3 months; format: ADME, organism-based, Canis lupus familiaris; set-up: dose 400 mg/kg, route intramuscular; conditions: im
[33] = Cmax in female dog at 200 mg, sc after 85 days; conditions: in vivo
[34] = Ratio of drug level in thymus to plasma in female Beagle dog at 400 mg/kg administered intramuscularly after 1 month; format: ADME, organism-based, Canis lupus familiaris; set-up: dose 400 mg/kg, route intramuscular; conditions: im
[35] = Drug level in Beagle dog muscle at injected site at 5 mg/kg administered intramuscularly after 6 months; format: ADME, organism-based, Canis lupus familiaris, Muscle tissue; set-up: dose 5 mg/kg, route intramuscular; conditions: im, read-out: Drug uptake
[36] = Drug level in Beagle dog skin at injected site at 5 mg/kg, sc after 6 months; format: ADME, organism-based, Canis lupus familiaris, Zone of skin; set-up: dose 5 mg/kg, route subcutaneous; conditions: read-out: Drug uptake
[37] = Drug level in Beagle dog muscle at non-injected site at 5 mg/kg, sc after 3 months; format: ADME, organism-based, Canis lupus familiaris, Muscle tissue; set-up: dose 5 mg/kg, route subcutaneous; conditions: read-out: Drug uptake
[38] = Drug level in Beagle dog lymph node popliteal at 5 mg/kg administered intramuscularly after 6 months; format: ADME, organism-based, Canis lupus familiaris; set-up: dose 5 mg/kg, route intramuscular; conditions: im, read-out: Drug uptake
[39] = Drug level in Beagle dog lymph node mandibular at 5 mg/kg administered intramuscularly after 3 months; format: ADME, organism-based, Canis lupus familiaris; set-up: dose 5 mg/kg, route intramuscular; conditions: im, read-out: Drug uptake
[40] = Drug level in Beagle dog lymph node axillar at 5 mg/kg, sc after 6 months; format: ADME, organism-based, Canis lupus familiaris; set-up: dose 5 mg/kg, route subcutaneous; conditions: axillary lymph node, read-out: Drug uptake
[41] = Drug level in male Beagle dog spleen at 400 mg/kg administered intramuscularly after 3 months; format: ADME, organism-based, Canis lupus familiaris; set-up: dose 400 mg/kg, route intramuscular; conditions: im, read-out: Drug uptake
[42] = Ratio of drug level in lymph node iliac to plasma in Beagle dog at 5 mg/kg, sc after 6 months; format: ADME, organism-based, Canis lupus familiaris; set-up: dose 5 mg/kg, route subcutaneous
Canis familiaris [43] = experiment: Toxicity in Beagle dog assessed as irritation at 20 mg/kg, sc after 3 months; format: organism-based, Canis lupus familiaris; set-up: dose 20 mg/kg, route subcutaneous; conditions: in vivo, 2191.5 h
[44] = Ratio of drug level in spleen to plasma in female Beagle dog at 200 mg/kg, sc after 1 month; format: ADME, organism-based, Canis lupus familiaris; set-up: dose 200 mg/kg, route subcutaneous
[45] = Drug level in Beagle dog lymph node popliteal at 5 mg/kg administered intramuscularly after 1 month; format: ADME, organism-based, Canis lupus familiaris; set-up: dose 5 mg/kg, route intramuscular; conditions: im, read-out: Drug uptake
[46] = (§2) Plasma concentration in Beagle dog at 5 mg/kg administered intramuscularly after 6 months; format: ADME, organism-based, Canis lupus familiaris; set-up: dose 5 mg/kg, route intramuscular; conditions: im
Plasma [47] = experiment: as §2; format: ADME, organism-based, Canis lupus familiaris; set-up: dose 5 mg/kg, route intramuscular; conditions: in vivo, im, 4383 h, BLD = below limit of detection
[48] = Drug level in Beagle dog spleen at 5 mg/kg administered intramuscularly after 6 months; format: ADME, organism-based, Canis lupus familiaris; set-up: dose 5 mg/kg, route intramuscular; conditions: im, read-out: Drug uptake
[49] = Drug level in Beagle dog spleen at 5 mg/kg, sc after 6 months; format: ADME, organism-based, Canis lupus familiaris; set-up: dose 5 mg/kg, route subcutaneous; conditions: read-out: Drug uptake
[50] = Drug level in female Beagle dog thymus at 200 mg/kg administered intramuscularly after 1 month; format: ADME, organism-based, Canis lupus familiaris; set-up: dose 200 mg/kg, route intramuscular; conditions: im, read-out: Drug uptake
[51] = AUC (0 to infinity) in Beagle dog at 1.25 mg/kg, iv after 2 days; format: ADME, organism-based, Canis lupus familiaris; set-up: dose 1.25 mg/kg, route intravenous, time infinity; conditions: plasma
[52] = Plasma concentration in female Beagle dog at 400 mg/kg administered intramuscularly after 3 months; format: ADME, organism-based, Canis lupus familiaris; set-up: dose 400 mg/kg, route intramuscular; conditions: im
[53] = Ratio of drug level in thymus to plasma in female Beagle dog at 200 mg/kg administered intramuscularly after 1 month; format: ADME, organism-based, Canis lupus familiaris; set-up: dose 200 mg/kg, route intramuscular; conditions: im
[54] = Cmax in Beagle dog at 5 mg/kg, sc after 176 days; format: ADME, organism-based, Canis lupus familiaris; set-up: dose 5 mg/kg, route subcutaneous; conditions: in vivo
[55] = Cmax in Beagle dog at 5 mg/kg administered intramuscularly after 176 days; format: ADME, organism-based, Canis lupus familiaris; set-up: dose 5 mg/kg, route intramuscular; conditions: in vivo, im

concentration at 2191.5 h [1]: 25.5 ng/g | concentration at 730.5 h [2]: 209 ng/mL | concentration at 4383 h [3]: 13.3 ng/g | Kp at 4383 h [5]: 4.3 | concentration at 2191.5 h [6]: 20.8 ng/g | concentration at 2191.5 h [7]: 13.1 ng/g | Tmax [8]: 4.6 h | concentration at 2191.5 h [9]: 43.6 ng/g | concentration at 2191.5 h [10]: 142000 ng/g | Cmax [11]: 38 ng/mL | Kp at 4383 h [13]: 24 | bioavailability [14]: 102% | concentration at 730.5 h [15]: 158 ng/mL | Kp at 730.5 h [16]: 2.5 | AUC(0-t) at 696 h [17]: 56800 ng·h/mL | Kp at 730.5 h [18]: 2 | AUC(0-t) at 696 h [19]: 188000 ng·h/mL | Kp at 2191.5 h [20]: 2.7 | Kp at 730.5 h [21]: 3.2 | concentration at 2191.5 h [22]: < 1 ng/mL | Cp (Plasma [23]): BLD | Kp at 2191.5 h [24]: 13 | AUC(0-inf) [25]: 1230 ng·h/mL | Cmax [26]: 185 ng/mL | concentration at 4383 h [27]: 7.8 ng/g | AUC(0-t) at 2040 h [28]: 265000 ng·h/mL | Tmax (Canis familiaris [29]): 144 h | concentration at 2191.5 h [30]: 14.7 ng/g | Kp at 730.5 h [31]: 2.3 | Kp at 2191.5 h [32]: 2.3 | Cmax [33]: 191 ng/mL | Kp at 730.5 h [34]: 6 | concentration at 4383 h [35]: 11500 ng/g | concentration at 4383 h [36]: 143000 ng/g | concentration at 2191.5 h [37]: 18.5 ng/g | concentration at 4383 h [38]: 30.7 ng/g | concentration at 2191.5 h [39]: 10 ng/g | concentration at 4383 h [40]: 8.6 ng/g | concentration at 2191.5 h [41]: 63.5 ng/g | Kp at 4383 h [42]: 7.7 | Kp at 730.5 h [44]: 2 | concentration at 730.5 h [45]: 6500 ng/g | concentration at 4383 h [46]: < 1 ng/mL | Cp (Plasma [47]): BLD | concentration at 4383 h [48]: < 5 ng/g | concentration at 4383 h [49]: 7.1 ng/g | concentration at 730.5 h [50]: 353 ng/g | AUC(0-inf) [51]: 8660 ng·h/mL | concentration at 2191.5 h [52]: 20.3 ng/mL | Kp at 730.5 h [53]: 5.7 | Cmax [54]: 31.4 ng/mL | Cmax [55]: 619 ng/mL
Structure (SMILES): Cc1cc(/C=C/C#N)cc(C)c1Nc1ccnc(Nc2ccc(C#N)cc2)n1 [RILPIVIRINE]
Activity (Canis familiaris [4]): Non-toxic | Activity (Canis familiaris [12]): Non-toxic | Activity (Canis familiaris [43]): Non-toxic
